Results on 15 molecules are retold here after PubChem BioAssay (NCI).

Among the test systems are SK-MEL-5 melanoma; A498 renal; HT29 colon; SK-MEL-28 melanoma; OVCAR-4 ovarian; SF-268 CNS; CAKI-1 renal; SF-539 CNS; SK-MEL-2 melanoma; A549 NSCLC.
Holding throughout (assay): inhibition of tumour cell growth, NCI panel, 48 h

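Five compound concentrations were applied to cells in 96-well plates for 48 hours; endpoints were derived by simple linear interpolation of the resulting dose-response curve. GI50: concentration for 50% inhibition of growth. TGI: total growth inhibition.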

Regarding `CC(C)Oc1ccc(C(=O)Cn2ccnc2)cc1-n1c(CN2CCN(C(=O)COc3ccc(Cl)cc3)CC2)nc2ccccc2c1=O`, the GI50 in the assay with SK-MEL-5 melanoma is 9.78 µM; in the assay on A498 renal, 14.1 µM; in the assay with HT29 colon, 14.8 µM; in the assay on SK-MEL-28 melanoma, 14.1 µM; with OVCAR-4 ovarian it was 3.6 µM; with SF-268 CNS it was 12.9 µM. Besides, the GI50 is 4.04 µM in the assay on CAKI-1 renal, 14.4 µM in the assay on SF-539 CNS, 17.6 µM in the assay with SK-MEL-2 melanoma and 18.4 µM with A549 NSCLC. Besides, the TGI in the assay with SK-MEL-5 melanoma was 23.5 µM; with A498 renal, 28.6 µM; in the assay with HT29 colon, 44.9 µM; with SK-MEL-28 melanoma, 29.9 µM; with OVCAR-4 ovarian, over 64.8 µM; with SF-268 CNS, 32.9 µM. For the same molecule, the TGI is 9.25 µM in the assay with CAKI-1 renal, 30.4 µM with SF-539 CNS, 38.5 µM in the assay on SK-MEL-2 melanoma and over 72.1 µM in the assay with A549 NSCLC.

Consider `N.N.N.N.N.O=S(=O)([O-])S(=O)(=O)[O-].[Co+3]`, for which the GI50 in the assay with SK-MEL-5 melanoma, with A498 renal, with HT29 colon, in the assay on SK-MEL-28 melanoma, in the assay with OVCAR-4 ovarian and with SF-268 CNS was over 100 µM in each case. Further, the GI50 in the assay with SF-539 CNS, with SK-MEL-2 melanoma and with A549 NSCLC was over 100 µM throughout. Further, the TGI in the assay on SK-MEL-5 melanoma, in the assay on A498 renal, in the assay with HT29 colon, in the assay on SK-MEL-28 melanoma, in the assay on OVCAR-4 ovarian and with SF-268 CNS was over 100 µM in each case. In addition, the TGI in the assay on SF-539 CNS, with SK-MEL-2 melanoma and in the assay with A549 NSCLC was over 100 µM each time.

Turning to `O=C(CC1(O)C(=O)Nc2c(Cl)ccc(Cl)c21)c1ccc(Cl)cc1Cl` (stereo not drawn), the TGI in the assay on A498 renal turned out to be 42.5 µM; in the assay with HT29 colon, 33.3 µM; in the assay on SK-MEL-28 melanoma, 38.8 µM; with OVCAR-4 ovarian it was 23.3 µM; in the assay with SF-268 CNS, 62.9 µM; in the assay on CAKI-1 renal, 64.2 µM. In addition, the TGI was 39.8 µM in the assay with SF-539 CNS, 48.9 µM with SK-MEL-2 melanoma and 47.2 µM with A549 NSCLC.

In the case of `O=C1/C(=C/c2ccc([N+](=O)[O-])cc2)COc2ccc(O)cc21`, the GI50 in the assay with SK-MEL-5 melanoma is 12.1 µM; in the assay with A498 renal it was 4.52 µM; in the assay on SK-MEL-28 melanoma it was 5.11 µM; in the assay with OVCAR-4 ovarian, 11.3 µM; with SF-268 CNS, 15.3 µM; in the assay with CAKI-1 renal, 3.7 µM. The GI50 with SF-539 CNS was 4.42 µM; in the assay with SK-MEL-2 melanoma it was 73 µM; in the assay with A549 NSCLC it was 78 µM. Further, the TGI in the assay on SK-MEL-5 melanoma was 53.6 µM; in the assay on A498 renal, over 100 µM; in the assay on SK-MEL-28 melanoma, 22.9 µM; in the assay with OVCAR-4 ovarian it was over 100 µM; in the assay with SF-268 CNS, over 100 µM; in the assay on CAKI-1 renal, 19.3 µM. The TGI with SF-539 CNS is 18.3 µM; with SK-MEL-2 melanoma it was over 100 µM; in the assay on A549 NSCLC it was over 100 µM.

Take `Cc1c(C)c(CC(=O)N2CC2)c(C)c(C)c1CC(=O)N1CC1`: the TGI with A498 renal is 32.1 µM; with HT29 colon, over 75.1 µM; with SK-MEL-28 melanoma, 37.6 µM; in the assay with OVCAR-4 ovarian, 44.8 µM; in the assay on SF-268 CNS, 23.1 µM; with CAKI-1 renal, 32.4 µM. Moreover, the results for the TGI with SF-539 CNS, with SK-MEL-2 melanoma and in the assay on A549 NSCLC were 16.5 µM, 32.6 µM and 50.3 µM, respectively.

Turning to `O=C1CNS(=O)(=O)N1`, the TGI with A498 renal, in the assay with HT29 colon, with SK-MEL-28 melanoma, in the assay with OVCAR-4 ovarian, in the assay on SF-268 CNS and in the assay on CAKI-1 renal was over 100 µM in each case. The TGI in the assay on SF-539 CNS, with SK-MEL-2 melanoma and in the assay with A549 NSCLC was over 100 µM in each case.

Turning to `CN(C)C(=S)Nc1nnc(Nc2ccccc2)s1`, the TGI in the assay on SK-MEL-5 melanoma, with A498 renal, in the assay on HT29 colon, in the assay on SK-MEL-28 melanoma, with OVCAR-4 ovarian and in the assay with CAKI-1 renal was over 100 µM throughout. Moreover, the TGI in the assay with SF-539 CNS, with SK-MEL-2 melanoma and with A549 NSCLC was over 100 µM each time.

Regarding `CSc1ccc(N(C)c2nc(C)nc3c2CCC3)cc1`, the GI50 is under 0.01 µM in the assay with A498 renal; under 0.01 µM in the assay with HT29 colon; 1.38 µM in the assay on SK-MEL-28 melanoma; under 0.01 µM in the assay with OVCAR-4 ovarian; under 0.01 µM in the assay on SF-268 CNS; under 0.01 µM in the assay on CAKI-1 renal. In addition, the GI50 in the assay on SF-539 CNS, in the assay with SK-MEL-2 melanoma and in the assay with A549 NSCLC was under 0.01 µM each time. The TGI with A498 renal is under 0.01 µM; with HT29 colon, 11.1 µM; in the assay on SK-MEL-28 melanoma it was 36.6 µM; with OVCAR-4 ovarian, over 100 µM; in the assay on SF-268 CNS, 60.4 µM; in the assay on CAKI-1 renal, over 100 µM. The values for the TGI with SF-539 CNS, in the assay with SK-MEL-2 melanoma and in the assay on A549 NSCLC were under 0.01 µM, 38.8 µM and over 100 µM, respectively.

For `CCOC(=O)N1CCN(CCCCCOc2ccccc2C2CCCCC2)CC1`, the GI50 with SK-MEL-5 melanoma was 1.52 µM; in the assay with A498 renal, 13.5 µM; with HT29 colon, 3.08 µM; in the assay with SK-MEL-28 melanoma it was 2.87 µM; in the assay with OVCAR-4 ovarian, 9.2 µM; with SF-268 CNS, 15.3 µM. Further, the GI50 was 3.23 µM in the assay with CAKI-1 renal, 6.39 µM in the assay on SF-539 CNS and 5.01 µM in the assay with A549 NSCLC. For the same molecule, the TGI in the assay with SK-MEL-5 melanoma is 3.53 µM; in the assay on A498 renal, 26.9 µM; in the assay on HT29 colon, 12 µM; in the assay on SK-MEL-28 melanoma, 16.3 µM; in the assay on OVCAR-4 ovarian, 22.2 µM; in the assay with SF-268 CNS, 35.1 µM. The TGI came out at 12.8 µM in the assay with CAKI-1 renal, 19.1 µM with SF-539 CNS and 17.3 µM with A549 NSCLC.

Turning to `CN1c2ccccc2SC2C(c3ccccc3)=NOC21` (stereo not drawn), the TGI with A498 renal, in the assay with HT29 colon, in the assay on SK-MEL-28 melanoma, in the assay on OVCAR-4 ovarian, in the assay on SF-268 CNS and in the assay with CAKI-1 renal was over 100 µM throughout. The results for the TGI with SF-539 CNS, in the assay with SK-MEL-2 melanoma and in the assay with A549 NSCLC were over 100 µM, 73.9 µM and over 100 µM, respectively.

`CCCCCCCCCCCCCC[n+]1cccc(C(N)=O)c1`: the GI50 is 5.57 µM with A498 renal; 0.778 µM in the assay on HT29 colon; 2.01 µM in the assay with SK-MEL-28 melanoma; 3.73 µM with OVCAR-4 ovarian; 1.66 µM in the assay on SF-268 CNS; 0.964 µM in the assay on CAKI-1 renal. The GI50 in the assay on SK-MEL-2 melanoma was 2.13 µM; with A549 NSCLC, 4.08 µM. The TGI was determined as 29.2 µM with A498 renal; 4.63 µM in the assay with HT29 colon; 5.52 µM in the assay with SK-MEL-28 melanoma; 19.6 µM in the assay on OVCAR-4 ovarian; 4.48 µM in the assay with SF-268 CNS; 6.52 µM in the assay on CAKI-1 renal. Also, the figures for the TGI in the assay on SK-MEL-2 melanoma and with A549 NSCLC were 4.69 µM and 18.4 µM, respectively.

For the molecule `COc1ccc(C2Oc3c(c(O)cc4c3[C@H](c3ccc(O)cc3O)[C@H](O)C(c3ccc(O)c(O)c3)O4)C[C@@H]2O)cc1O` (stereo partly drawn), the TGI with SK-MEL-5 melanoma, with A498 renal, in the assay on HT29 colon, in the assay with OVCAR-4 ovarian, in the assay on SF-268 CNS and in the assay with CAKI-1 renal was over 100 µM throughout. Further, the TGI in the assay with SF-539 CNS, in the assay on SK-MEL-2 melanoma and in the assay with A549 NSCLC was over 100 µM throughout.

Regarding `Cc1c(C(=O)/C=C/c2ccccc2[N+](=O)[O-])[n+](=O)c2ccccc2n1[O-]`, the TGI with SK-MEL-5 melanoma stood at 24.4 µM; with A498 renal it was 26 µM; in the assay on HT29 colon it was 23.2 µM; in the assay with SK-MEL-28 melanoma it was 25.5 µM; with OVCAR-4 ovarian it was 22.8 µM; in the assay on CAKI-1 renal, 15.7 µM. For the same molecule, the TGI with SF-539 CNS stood at 10.2 µM; in the assay on SK-MEL-2 melanoma, 24.1 µM; in the assay on A549 NSCLC, 34.3 µM.

With `CC(C)(C)c1ccc(OC2CCO2)cc1` (stereo not drawn), the TGI with SK-MEL-5 melanoma is over 100 µM; in the assay on A498 renal, over 100 µM; in the assay with HT29 colon, 50.9 µM; with SK-MEL-28 melanoma, over 100 µM; in the assay on OVCAR-4 ovarian it was over 100 µM; in the assay on SF-268 CNS, 81.5 µM. Besides, the TGI with CAKI-1 renal is over 100 µM; in the assay on SF-539 CNS, 98.6 µM; in the assay on A549 NSCLC, over 100 µM.

Regarding `COC(=O)c1ccc2c(c1)C(=O)c1c-2n(CCCN=[N+]=[N-])c(=O)c2cc([N+](=O)[O-])ccc12`, the GI50 was over 100 µM in the assay on SK-MEL-5 melanoma; over 100 µM in the assay on A498 renal; over 100 µM in the assay on HT29 colon; over 100 µM with SK-MEL-28 melanoma; over 100 µM with OVCAR-4 ovarian; 17.3 µM in the assay with SF-268 CNS. In addition, the GI50 was over 100 µM in the assay with CAKI-1 renal, 53.1 µM in the assay with SF-539 CNS and 27 µM in the assay with SK-MEL-2 melanoma. Besides, the TGI in the assay with SK-MEL-5 melanoma, with A498 renal, with HT29 colon, in the assay on SK-MEL-28 melanoma, with OVCAR-4 ovarian and in the assay on SF-268 CNS was over 100 µM each time. Further, the results for the TGI in the assay with CAKI-1 renal, in the assay on SF-539 CNS and in the assay on SK-MEL-2 melanoma were over 100 µM, over 100 µM and 82.5 µM, respectively.
